Marks after values point to notes of the source that are not given here.
What was measured:
[1] = Emulsifying activity against hydrocarbon contaminants; format: physicochemical; details: cyclohexane and kerosene
Experimental: Therefore, the emulsifying properties of microbial biosurfactants 1–3 were evaluated against light as well as heavy hydrocarbon contaminants such as cyclohexane and kerosene, respectively (see Fig. S7 ^†).

[2] = Cytotoxicity, resazurin assay; format: cell-based, human; details: human, max tested 200 μM
Experimental: As the anticancer potential of microbial rhamnolipids has previously been reported,[16] we next sought to evaluate the in vitro cytotoxicity of our synthetic and natural glycolipids 1–6 against cancerous cell lines, i.e., human lung carcinoma (A549) and colorectal adenocarcinoma (DLD-1). The compounds were also tested against human normal skin fibroblasts (WS1) to estimate their selectivity towards cancer cells.
4. Experimental Procedures for Biological Evaluation and Surfactant Properties. […]
Cell Culture. Human lung carcinoma (A549), human colorectal adenocarcinoma (DLD-1), and human normal skin fibroblasts (WS1) cell lines were obtained from the American Type Culture Collection (ATCC). All cell lines were cultured in minimum essential medium containing Earle’s […]
salts and L-glutamine (Mediatech Cellgro, VA), to which were added 10% foetal bovine serum (Hyclone), vitamins (1×), penicillin (100 IU•mL-1), streptomycin (100 µg•mL−1), essential amino acids (1×), and sodium pyruvate (1×) (Mediatech Cellgro, VA). Cells were kept at 37 °C in a humidified environment containing 5% CO2.
Cytotoxicity Assay. Exponentially growing A549, DLD-1 or WS1 cells were plated in 96-well microplates (Costar, Corning Inc.) at a density of 5 × 10^3 cells per well in 100 µL of culture medium and were allowed to adhere for 16 h prior treatment. Increasing concentrations of each compound in biotech DMSO (Sigma-Aldrich) were then added (100 µL per well) and the cells were incubated for 48 h. The final concentration of DMSO in the culture medium was maintained at 0.5% (v/v) to avoid solvent toxicity. Cytotoxicity was assessed using resazurin9 on an automated 96-well Fluoroskan Ascent F1TM plate reader (Labsystems) using excitation and emission wavelengths of 530 and 590 nm, respectively. Fluorescence was proportional to the cellular metabolic activity in each well. Survival percentage was defined as the fluorescence in experimental wells as compared to that in control wells after subtraction of blank values. Each experiment was carried out three times in triplicate. IC50 results were expressed as means ± standard deviation. […]

sheep blood erythrocytes = assay: Hemolytic activity; format: cell-based; details: sheep blood erythrocytes; 1 h, 37 °C; max tested 200 μM
Experimental: Owing to their surfactant properties, glycolipids can break the membrane of red blood cells causing hemolytic activity.[18] To understand if the cytotoxicity of macrolactones 1, 4, 5β, and 6β was due to their surface tension activity, we evaluated the hemolytic potential of synthetic glycolipids 1–6 against sheep erythrocytes (Table 5). […] The non-cytotoxic rhamnolipid 3 was also found to exert a weak hemolytic activity (HC50 = 65 ± 6 μM). […]
Hemolytic Activity. The hemolytic activity of the synthetic surfactants was evaluated as previously described with small modifications.10 Defibrinated sheep blood (Oxoid) was centri fuged at 1000 × g for 5 min. The pellet containing erythrocytes was washed once and suspended in 1X PBS to obtain a 1% erythrocytes suspension. All samples were suspended in DMSO/PBS (5:1 v/v) and serially diluted in a 96 -well plate to obtain a range of co ncentrations from 1 mM to 7.8 µM.
The erythrocytes suspension (160 µL) was added to 40 µL of samples to obtain final concentrations […]
(§1) ranging between 200 µM and 1.56 µM. Triton X-100 was used as a positive hemolysis control.
The plate was then incubated at 37 °C with agitation at 150 rpm for 1 h and centrifuged at 1500 × g for 5 min. The supernatant was transferred in an empty plate and absorbance was measured at 540 nm using a Cytation3 microplate reader (Biotek). HC50 was calculated in comparison with the positive control. The experiment was performed in triplicate and repeated three times. […]

Arabidopsis petiole = assay: Extracellular ROS production, luminol chemiluminescence; format: cell-based, Arabidopsis thaliana; details: 100 μM
Experimental: The only exception to this general trend was compound 5β. […]
ananatoside A (1) ananatoside B (2)
Figure S8. Extracellular ROS production following treatment of Arabidopsis petiole with […]
ananatoside A (1) or ananatoside B (2). Production of reactive oxygen species (ROS) was measured […]
in Arabidopsis petiole following treatment at 100 µM with ananatoside A (1) and ananatoside B […]
(2). Methanol (0.5%) was used as a control. ROS production was measured using the […]
chemiluminescence of luminol and photon counts were expressed as relative luminescence units […]
(RLUs). Data are mean ± SEM (n = 6). Experiments were realized three times with similar results.
(also on this page, place not known: S 8. ( 1) Luminescence (RLU) Luminescence (RLU)) […]
as §1
The plate was then incubated at 37 °C with agitation at 150 rpm for 1 h and centrifuged at 1500 × g for 5 min. The supernatant was transferred in an empty plate and absorbance was measured at 540 nm using a Cytation3 microplate reader (Biotek). HC50 was calculated in comparison with the positive control. The experiment was performed in triplicate and repeated three times.
Plant Material and Growth Conditions. […]
Reactive Oxygen Species (ROS) Production. […] Luminescence (relative light units, RLU) was measured every 4

[3] = DLD-1 colorectal adenocarcinoma cells

SMILES | Emulsifying activity [1] | IC50 at 48 h ([2]; A549 lung carcinoma cells) [µM] | IC50 at 48 h [2, 3] [µM] | IC50 at 48 h ([2]; WS1 normal skin fibroblasts) [µM] | Hemolysis (HC50 in μM) Erythrocytes (sheep blood erythrocytes) | Extracellular ROS production (perception by plants) (Arabidopsis petiole)
CCCCCCC[C@H](CC(=O)O)OC(=O)C[C@@H](CCCCCCC)O[C@@H]1O[C@H](CO)[C@@H](O)[C@H](O)[C@H]1O [Compound 2, ananatoside B] | equally able to generate emulsions with cyclohexane and kerosene | > 200 | > 200 | > 200 | >200 ^d μM | perceived by plants
CCCCCCC[C@@H]1CC(=O)OC[C@H]2O[C@@H](O[C@H](CCCCCCC)CC(=O)O1)[C@H](O)[C@@H](O)[C@@H]2O [Compound 1, ananatoside A] | unable to form any emulsion | 50 ± 7 | 58 ± 2 | 52 ± 4 | 12.3 ± 0.3 µM | perceived by plants

Source: paper PMC8171317, “Total synthesis, isolation, surfactant properties, and biological evaluation of ananatosides and related macrodilactone-containing rhamnolipids” (Chemical Science, 2021)
